Results published in ChEMBL document CHEMBL1137935 (Bioorg Med Chem Lett, 2004).
Each block holds one compound with its values, some of them ahead of it. Activity calls are given as the source filed them. No cut-off for these calls is given here.

Columns and labels:
[1] = biological target: T1, Adenosine receptor A1 (Cavia porcellus) (UniProt P47745); test: Binding affinity against adenosine A1 receptor using [3H]CCPA in guinea pig DDT membrane; 2.73+/-0.49
T1 sequence (whole entry): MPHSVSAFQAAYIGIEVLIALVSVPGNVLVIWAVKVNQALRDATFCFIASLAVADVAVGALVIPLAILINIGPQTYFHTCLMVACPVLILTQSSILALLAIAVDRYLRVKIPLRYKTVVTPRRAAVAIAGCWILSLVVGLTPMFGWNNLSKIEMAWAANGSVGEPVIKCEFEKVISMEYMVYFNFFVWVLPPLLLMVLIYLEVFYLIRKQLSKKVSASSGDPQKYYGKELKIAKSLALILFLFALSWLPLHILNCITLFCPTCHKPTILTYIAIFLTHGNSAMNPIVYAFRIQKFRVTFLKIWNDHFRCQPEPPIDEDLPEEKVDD

[2] = biological target: T1, Adenosine receptor A1 (Cavia porcellus); test: Binding affinity against […] using [35S]GTP-gamma-S, radioligand in guinea pig.; format: functional
[3] = biological target: T1, Adenosine receptor A1 (Cavia porcellus); test: Binding affinity against adenosine A1 receptor using [3H]CPX in guinea pig DDT membrane; format: cell membranes
[4] = biological target: T1, Adenosine receptor A1 (Cavia porcellus); test: Binding affinity against adenosine A1 receptor using [3H]CPX in guinea pig DDT membrane; 158+/-21
[5] = biological target: T1, Adenosine receptor A1 (Cavia porcellus); test: Binding affinity against adenosine A1 receptor using [3H]CCPA in guinea pig DDT membrane; 21+/-0
[6] = biological target: T1, Adenosine receptor A1 (Cavia porcellus); test: Binding affinity against adenosine A1 receptor using [3H]CPX in guinea pig DDT membrane; 503+/-262
[7] = biological target: T1, Adenosine receptor A1 (Cavia porcellus)
[8] = biological target: T1, Adenosine receptor A1 (Cavia porcellus); remark: listed apart in the source
[9] = biological target: T1, Adenosine receptor A1 (Cavia porcellus); test: Binding affinity against adenosine A1 receptor using [3H]CPX in guinea pig DDT membrane; 166+/-75
[10] = biological target: T1, Adenosine receptor A1 (Cavia porcellus); test: Binding affinity against adenosine A1 receptor using [3H]CCPA in guinea pig DDT membrane; 0.93+/-0.92
[11] = biological target: T1, Adenosine receptor A1 (Cavia porcellus); test: Binding affinity against adenosine A1 receptor using [3H]CPX in guinea pig DDT membrane; 6250+/-1767
[12] = biological target: T1, Adenosine receptor A1 (Cavia porcellus); test: Binding affinity against adenosine A1 receptor using [3H]CCPA in guinea pig DDT membrane; 2400+/-16
[13] = tested on: Adenosine receptor A1 (Cavia porcellus); test: Binding affinity against […] using [35S]GTP-gamma-S, in guinea pig; not active
[14] = biological target: T1, Adenosine receptor A1 (Cavia porcellus); remark: listed apart in the source
[15] = biological target: T1, Adenosine receptor A1 (Cavia porcellus); remark: listed apart in the source
[16] = biological target: T1, Adenosine receptor A1 (Cavia porcellus); test: Binding affinity against adenosine A1 receptor using [3H]CPX in guinea pig DDT membrane; 1571+/-245
[17] = biological target: T1, Adenosine receptor A1 (Cavia porcellus); test: Binding affinity against adenosine A1 receptor using [3H]-CCPA in guinea pig DDT membrane; 180+/-23
[18] = biological target: T1, Adenosine receptor A1 (Cavia porcellus); test: Binding affinity against adenosine A1 receptor using [3H]CPX in guinea pig DDT membrane; 473+/-329
[19] = biological target: T1, Adenosine receptor A1 (Cavia porcellus); test: Binding affinity against adenosine A1 receptor using [3H]CPX in guinea pig DDT membrane; 913+/-517
[20] = biological target: T1, Adenosine receptor A1 (Cavia porcellus); test: Binding affinity against adenosine A1 receptor using [3H]CPX in guinea pig DDT membrane; 343+/-137
[21] = biological target: T1, Adenosine receptor A1 (Cavia porcellus); test: Binding affinity against adenosine A1 receptor using [3H]-CPX in guinea pig DDT membrane; 4191+/-922
[22] = biological target: T1, Adenosine receptor A1 (Cavia porcellus); remark: listed apart in the source
[23] = biological target: T1, Adenosine receptor A1 (Cavia porcellus); test: Binding affinity against adenosine A1 receptor using [3H]CPX in guinea pig DDT membrane; 400+/-38
[24] = biological target: T1, Adenosine receptor A1 (Cavia porcellus); remark: listed apart in the source
[25] = biological target: T1, Adenosine receptor A1 (Cavia porcellus); remark: listed apart in the source

Structure (SMILES): Cc1cc(COC[C@H]2OC(n3cnc4c(NC5CCOC5)ncnc43)[C@H](O)C2O)no1 (single isomer, unassigned)
Ki high [1]: 2.73 nM | efficacy relative to CPA [2]: 84% | Ki low [3]: 192 nM

Structure (SMILES): OC1[C@@H](O)C(n2cnc3c(NC4CCOC4)ncnc32)O[C@@H]1CSc1nccs1 (single isomer, unassigned)
Ki low [4]: 158 nM | Ki high [5]: 21 nM | efficacy relative to CPA [2]: 106%

Structure (SMILES): CNC(=O)OC[C@H]1OC(n2cnc3c(NC4CCOC4)ncnc32)[C@H](O)C1O (single isomer, unassigned)
Ki low [7]: 3610 nM | Ki high [8]: 167 nM

Structure (SMILES): O[C@@H]1[C@@H](CSc2nccs2)OC(n2cnc3c(NC4CCCC4)ncnc32)[C@@H]1O (stereo partly drawn)
Ki low [9]: 166 nM | Ki high [10]: 0.93 nM | efficacy relative to CPA [2]: 105%

Structure (SMILES): OC1[C@@H](O)C(n2cnc3c(NC4CCOC4)ncnc32)O[C@@H]1CSc1ccccc1C(F)(F)F (single isomer, unassigned)
Ki low [11]: 6250 nM | Ki high [12]: 2400 nM | CPA [13]: inactive

Structure (SMILES): OC[C@H]1O[C@@H](n2cnc3c(N[C@@H]4CCOC4)ncnc32)[C@H](O)C1O (single isomer, unassigned)
Ki low [14]: 543 nM | Ki high [15]: 3.25 nM

Structure (SMILES): OC1[C@@H](O)C(n2cnc3c(NC4CCOC4)ncnc32)O[C@@H]1CSc1cccc(F)c1 (single isomer, unassigned)
Ki low [16]: 1570 nM | Ki high [17]: 180 nM | efficacy relative to CPA [2]: 84%

Structure (SMILES): Cn1ccnc1SC[C@H]1OC(n2cnc3c(NC4CCCC4)ncnc32)[C@H](O)[C@@H]1O (stereo partly drawn)
efficacy relative to CPA [2]: 112% | Ki low [3]: 1340 nM

Structure (SMILES): OC1[C@@H](O)C(n2cnc3c(NC4CCOC4)ncnc32)O[C@@H]1CSc1ncccn1 (single isomer, unassigned)
Ki low [19]: 913 nM | efficacy relative to CPA [2]: 89%

Structure (SMILES): Cn1ccnc1SC[C@H]1OC(n2cnc3c(NC4CCOC4)ncnc32)[C@H](O)C1O (single isomer, unassigned)
Ki low [21]: 4190 nM | efficacy relative to CPA [2]: 84%

Continued, values first:

Ki low [6]: 503 nM | efficacy relative to CPA [2]: 61%
Structure (SMILES): Cc1ccccc1OC[C@H]1OC(n2cnc3c(NC4CCOC4)ncnc32)[C@H](O)C1O (single isomer, unassigned)

Ki low [18]: 473 nM | efficacy relative to CPA [2]: 62%
Structure (SMILES): OC1[C@@H](O)C(n2cnc3c(NC4CCOC4)ncnc32)O[C@@H]1COc1ccccc1Cl (single isomer, unassigned)

Ki low [20]: 343 nM | efficacy relative to CPA [2]: 71%
Structure (SMILES): OC1[C@@H](O)C(n2cnc3c(NC4CCOC4)ncnc32)O[C@@H]1COc1ccc(F)cc1 (single isomer, unassigned)

efficacy relative to CPA [2]: 110% | Ki low [22]: 894 nM
Structure (SMILES): OC1[C@@H](O)C(n2cnc3c(NC4CCOC4)ncnc32)O[C@@H]1CSc1ccccn1 (single isomer, unassigned)

Ki low [23]: 400 nM | efficacy relative to CPA [2]: 100%
Structure (SMILES): OC1[C@@H](O)C(n2cnc3c(NC4CCOC4)ncnc32)O[C@@H]1CSc1nc2ccccc2s1 (single isomer, unassigned)

efficacy relative to CPA [2]: 18% | Ki low [24]: 7290 nM | Ki high [25]: 233 nM
Structure (SMILES): Cc1cccc(Cl)c1SC[C@H]1OC(n2cnc3c(NC4CCOC4)ncnc32)[C@H](O)C1O (single isomer, unassigned)
